According to patent US20110251258A1, “RNAI CONSTRUCTS AND USES THEREOF” (RXi Pharmaceuticals Corporation, priority 2008, published 2011):

How the values were obtained:
PPIB = conditions: for relative expression of PPIB remaining after transfection: HEK293, 48 hour incubation, even at 10 nM, compared to negative control 10837 and UTC; for activity at sub-nano molar concentrations / target gene expression at about 0.1 nM: HEK293, with RISC-Free filler; for EC50: PPIB expression, HEK293, 48 hours after transfection, dose response with RISC-Free filler; for EC50 fold higher than that of the 25-mer dsRNA 10460: from the EC50 table of Example III; for PPIB gene silencing activity (in words): transfection assay as in Example I
Text: Positive and negative controls were also included. As shown and described in FIG. 4, construct prepared from single-stranded polynucleotide 10837 (SEQ ID NO: 6) was used as a negative control. […] This structure, denoted as construct 10460 (5′P-mCmUmCm[…]mAmAmAmA-3′, SEQ ID NO: 7) in this example, contains 2′-O-methyl modified bases on 4 of the outermost positions at both ends of the sequence.
(§1) All constructs were transfected into HEK293 cells using the LIPOFECTAMINE™ RNAiMAX reagent (Invitrogen Corp., Carlsbad, Calif.) according to manufacture's instructions. In brief, RNA was diluted to a 12× concentration and then combined with a 12× concentration of LIPOFECTAMINE™ RNAiMAX to complex. The RNA and transfection reagent were allowed to complex at room temperature for 20 minutes to yield a 6× concentration. While complexing, HEK293 cells were washed, trypsinized and counted. The cells were diluted to a concentration recommended by the manufacturer which was at 1×10^5 cells/ml. When RNA has completed complexing with the RNAiMAX transfection reagent, 20 μl of the complexes were added to the appropriate well of the 96-well plate in triplicate. Cells were added to each well (100 μl volume) to make the final cell count per well at 1×10^4 cells/well. The volume of cells diluted the 6× concentration of complex to 1× which was equal to 50, 25, or 10 nM. Cells were incubated for 48 hours under normal growth conditions. After 48 hour incubation, cells were lysed and gene silencing activity was measured using the Panomics […]™ assay which employs bDNA hybridization technology. The assay was carried out according to manufacturer's instructions.
Active RNAi construct stocks at 100 or 10 μM were used to make a 3 μM working dilution in RNA Buffer (1:33.333 dilution) by mixing 30 μl of a 10 μM stock+70 μl RNA Buffer. Diluted RNAi compound plates were prepared in a 96 well plate of 0.2 mL PCR tubes as follows:
a. 50 nM Condition (dilute RNA compound to 12× or to 600 nM in OptiMEM, Reduced Serum Medium, Invitrogen Corp., Carlsbad, Calif.): • i. Add 80 μl of OptiMEM to each well • ii. Add 20 μl of working stock RNAi compound (3 μM) to each well with OptiMEM
b. 25 nM Condition (dilute RNA to make 12× or to 300 nM in OptiMEM): • i. Add 50 μl of OptiMEM to each well • ii.
c. 10 nM Condition (dilute RNA compound to 12× or to 120 nM in OptiMEM): • i. Add 30 μl of OptiMEM to each well • ii.
A bulk amount of diluted RNAiMAX and LIPOFECTAMINE™ were made as follows:
a. 1,470 μl Opti-MEM+30 μl RNAiMAX
c. Combine RNAiMAX and Opti-MEM, Lipofectamine and Opti-MEM, mix gently.
Diluted RNAiMAX or LIPOFECTAMINE™ (35 μl each) was added to each 0.2 ml PCR well. Then, 35 μl of diluted RNAi compound from the RNA plate (above) was also added to each well. Each well contained enough for duplicates at a given dose. Each reaction mixture was gently mixed by pipetting up and down 3 times. The mixture was allowed to complex for at least 15 minutes at room temperature. Meanwhile, a suspension of cells at 1×10^5 cells/ml was prepared. After 15 minutes, 20 μl of complexed RNAi was added to each tissue-culture treated 96-well using a multi-channel pipettor. The prepared cell suspension was added to each reaction at a final volume of 1×10^4 cells (100 μl of cell suspension) and allowed to incubate for 48 hours at 37° C., 10% CO2.
Constructs 10460 (SEQ ID NO: 7, see above, a 25-bp double-stranded RNA with blunt ends) and 10167.2 (a 21-bp double-stranded RNA) were included as positive controls. Untransfected control (UTC) was included as a negative control. Transfections were performed as in Example I or according to the manufactures' recommendation. Each construct (except for the UTC) was transfected at a final concentration of about 50 nM, 25 nM, 10 nM, 5 nM, and 1 nM.
The RISC-Free filler is a commercially available control.

MAP4K4 = test system: MAP4K4
Method: as §1

U.U.U.U.U.G.G.A.A.C.A.G.U.C.U.U. U.C.C.U.G.U.U.C.C.A.A.A.A.A [compound 11976]
PPIB silencing potency compared with another construct (PPIB): more potent that those designed based on the 10463 sequence (12003 and 12004)

U.U.U.U.U.G.G.A.A.C.A.G.U.C.U.U. U.C.C.A.C.U.G.U.U.C.C.A.A.A.A.A [compound 11975]
PPIB silencing potency compared with another construct (PPIB): more potent that those designed based on the 10463 sequence (12003 and 12004)

UUUUUGGAACAGUCUUUCCACUGUUCCAAAAA [compound 10833]
relative expression of PPIB remaining after transfection (PPIB): dramatically decrease PPIB expression
activity at sub-nano molar concentrations (PPIB): remained partially active
target gene expression at about 0.1 nM (PPIB): at least negative control level
EC50 (PPIB): 0.599 nM
EC50 fold higher than that of the 25-mer dsRNA 10460 (PPIB): about 60 fold
PPIB gene silencing activity (in words) (PPIB): can inhibit PPIB expression

SS: P.mC.mU.mC.mU.U.C.G.G.A.A.A.G. A.C.U.G.U.U.C.C.A.mA.mA.mA.mA AS: U.U.U.U.U.G.G.A.A.C.A.G.U.C.U.U. U.C.C.G.A.A.G.A.G [compound 10460, reference compound]
PPIB silencing potency compared with another construct (PPIB): more potent than the dsRNA construct 10463
EC50 (PPIB): 0.014 nM

U.U.A.C.A.C.G.A.U.G.G.A.A.U.U.U. G.C.U.U.U.C.C.A.U.C.G.U.G.U.A.A. [compound 12003]
PPIB silencing potency compared with another construct (PPIB): less effective

SS: G.G.A.A.A.G.A.C.U.G.U.U.C.C.A.A. A.A.A AS: U.U.U.U.U.G.G.A.A.C.A.G.U. [compound 12000, reference compound]
PPIB gene silencing activity (in words) (PPIB): essentially inactive

U.U.A.C.A.C.G.A.U.G.G.A.A.U.U.U. G.C.U.C.C.A.U.C.G.U.G.U.A.A [compound 12004]
PPIB silencing potency compared with another construct (PPIB): less effective

U.A.G.A.C.U.U.C.C.A.C.A.G.A.I.I.U. I.I.A.A.G.U.C.U.A [compound 11993]
MAP4K4 gene silencing activity (in words) (MAP4K4): ineffective

UUUUUGGAACAGUCUUUCCUGUUCCAAAAA [compound 10834]
relative expression of PPIB remaining after transfection (PPIB): dramatically decrease PPIB expression
activity at sub-nano molar concentrations (PPIB): remained partially active
target gene expression at about 0.1 nM (PPIB): at least negative control level
EC50 (PPIB): 1.54 nM
EC50 fold higher than that of the 25-mer dsRNA 10460 (PPIB): about 110 fold
PPIB gene silencing activity (in words) (PPIB): can inhibit PPIB expression
